# Data: paper PMC6287892, “Design, Synthesis, and Biological Evaluation of 3-(Imidazo[1,2-a]pyrazin-3-ylethynyl)-4-isopropyl-N-(3-((4-methylpiperazin-1-yl)methyl)-5-(trifluoromethyl)phenyl)benzamide as a Dual Inhibitor of Discoidin Domain Receptors 1 and 2” (Journal of Medicinal Chemistry, 2018)
# Columns and labels:
# Male C57BL/6 mice = assay: Acute-toxicity assay in mice; format: in vivo; conditions: 200 or 400 mg/kg by gavage
# Protocol: Male C57BL/6 mice weighing 18–20 g were randomly divided into three groups (n = 5 per group). Mice were gavage-administered 200 μL of the drug (at 200 or 400 mg/kg in physiological saline). Mice in the control group received 200 μL of physiological saline. After drug administration, body-weight changes were recorded for 7 days.
# [1] = Pharmacokinetic parameters in rats; format: in vivo; conditions: SD rats
# Protocol: Male SD rats weighing 180–220 g (Southern China Medical University) were utilized for the studies. The protocol was approved by the Animal Care and Use Committee, GIBH. Animals were given standard animal chow and water ad libitum in a climate-controlled room (23 ± 1 °C, 30–70% relative humidity, a minimum of 10 exchanges of room air per hour, and a 12 h light–dark cycle) for 1 week prior to experiments. The compound was dissolved in a solution containing 2% DMSO, 4% ethanol, 4% castor oil, and 90% ddH2O. The pharmacokinetic properties of the SD rats (male) were determined following iv and oral administration. Animals were randomly distributed into two experimental groups (n = 3). […] After single administration, whole blood samples (100–200 μL) were obtained from the orbital venous plexus at the following time points after dosing: 5, 10, and 30 min and 1, 2, 3, 4, 6, 8, 11, and 24 h (po) or 2, 10, and 30 min and 1, 2, 3, 4, 6, 8, 11, and 24 h (iv). Whole blood samples were collected in heparinized tubes. The plasma fraction was immediately separated by centrifugation (8000 rpm, 6 min, 4 °C) and stored at −20 °C until LC-MS analysis. The rats were humanely euthanasia by carbon dioxide 24 h after the experiment without pain. The pharmacokinetics parameters were calculated by analyzing the compound concentrations in plasma samples using the pharmacokinetic software DAS.2.0.
# [2] = male, rat, plasma, iv (4 mg/kg)
# [3] = male, rat, plasma, oral (20 mg/kg)
compound,measurement,setting,value
"CC(C)c1ccc(C(=O)Nc2cc(CN3CCN(C)CC3)cc(C(F)(F)F)c2)cc1C#Cc1cnc2cnccn12 [Compound 5n, 3-(Imidazo[1,2-a]pyrazin-3-ylethynyl)-4-isopropyl-N-(3-((4-methylpiperazin-1-yl)methyl)-5-(trifluoromethyl)phenyl)benzamide]",tolerability,Male C57BL/6 mice,well-tolerated
same,animal deaths and body-weight changes,Male C57BL/6 mice; 7 days,no animal deaths or obvious body-weight changes
same,BA,[1]; oral (20 mg/kg) vs iv (4 mg/kg),8.06%
same,AUC(0-inf),[1]; [2],798 ± 121 ng·h/mL
same,Cmax,[1]; [2],1180 ± 150 ng/mL
same,half-life,[1]; [2],2.12 ± 0.25 h
same,clearance,"[1]; male, rat, plasma, iv (4 mg/kg), read-out: CLz (converted)",85 mL/min/kg
same,AUC(0-inf),[1]; [3],322 ± 106 ng·h/mL
same,Cmax,[1]; [3],48.7 ± 18.2 ng/mL
same,Tmax,[1]; [3],1.5 ± 1.3 h
same,half-life,[1]; [3],2.08 ± 0.66 h
